Results as given in patent publication US20230075422A1, “USE OF FUCOSYLATION INHIBITOR FOR PRODUCING AFUCOSYLATED ANTIBODY” (BRISTOL-MYERS SQUIBB COMPANY, priority 2019, published 2023).

Key:
Assay type in all cases: cell-based
[1] = system: fucosylation of antibodies; assay: Percentage of nonfucosylated antibodies for antibodies grown in the presence of fucosylation inhibitors (FIG. 2A); details: antibodies grown in presence of inhibitor at 1 mM to 6 mM
Description: The level of fucosylation in an antibody preparation may be determined by any method known in the art, including but not limited to gel electrophoresis, liquid chromatography, and mass spectrometry. Unless otherwise indicated, for the purposes of the present invention, the level of fucosylation in an antibody preparation is determined by hydrophilic interaction chromatography (or hydrophilic interaction liquid chromatography, HILIC), essentially as described at Example 2. To determine the level of fucosylation of an antibody preparation, samples are denatured treated with PNGase F to cleave N-linked glycans, which are then analyzed for fucose content. LC/MS of full-length antibody chains is an alternative method to detect the level of fucosylation of an antibody preparation, but mass spectroscopy is inherently less quantitative.
Nonfucosylated antibody preparations may be analyzed to determine the percentage of afucosylated heavy chains essentially as follows.
Antibodies are first denatured using urea and then reduced using DTT (dithiothreitol). Samples are then digested overnight at 37° C. with PNGase F to remove N-linked glycans. […] The resulting labeled glycans are then resolved on a HILIC column and the eluted fractions are quantified by fluorescence and dried. […] Untreated samples and BKF-treated samples are then analyzed by liquid chromatography. […]

[2] = system: fucosylation of antibodies; assay: Electropherograms of antibody preparations, glycoform peaks (FIGS. 3A-3C); details: cells cultured with 6 mM or 10 mM inhibitor vs no inhibitor
Description: FIGS. 3A, 3B and 3C show electropherograms of antibody preparations made using cells cultured without a fucosylation inhibitor or in the presence of 6 mM or 10 mM Ac-GDP-D-rhamnose, respectively. Peaks for different glycoforms are indicated, with white boxes for fucosylated species and dark boxes for nonfucosylated species.

[3] = system: antibody production cell line; assay: Antibody titers of the same antibody preparations (FIG. 2B); details: same preparations as FIG. 2A, inhibitor 1 mM to 6 mM, compared with GDP-D-rhamnose

Molecule	percentage of nonfucosylated antibodies [1]	proportion of nonfucosylated species (glycoforms) [2]	antibody titer (yield) [3]
C[C@H]1O[C@H](OP(=O)(O)OP(=O)(O)OC[C@H]2O[C@@H](n3cnc4c(=O)[nH]c(N)nc43)[C@H](O)[C@@H]2O)[C@@H](O)[C@@H](O)[C@@H]1O [GDP-D-rhamnose]	increasing the percentage of nonfucosylated antibodies	–	–
Ac-GDP-D-rhamnose	as effective as GDP-D-rhamnose	increase the proportion of nonfucosylated species	less deleterious effect on titer
